# Patent US20240271071A1, “METHOD AND APPARATUS FOR FORMING A MICROFLUIDIC GEL STRUCTURE” (Mimetas B.V., priority 2021, published 2024)
# Test system: HCAEC and HCASMC co-culture
# Assay: Visualising contractile lumen (vasodilation/vasoconstriction) in coronary artery tubule model
# Format: cell-based, Human
# Conditions: Sildenafil at day 6, 5 μM, 50 μM and 500 μM, after Norepinephrine at day 3; phase contrast images, 30 minutes post-exposure
# Procedure: For this example, a 3-lane OrganoPlate® ([…]) with 400 μm wide lanes was used, which comprises a microfluidic network of 3 lanes and two capillary pressure barriers. The network was filled with 50 μL HBSS in the observation window (the point where the 3 lanes converge) to provide additional humidity to the plate. The central lane was filled at the inlet with a neutralised bovine type I atelocollagen solution PureCol® EZ Gel 5 mg/ml (Advanced BioMatrix); the solution was pinned at the capillary pressure barrier leaving a free-standing meniscus at the air-liquid interface in the upper and lower lane. A 30 μL solution of HBSS was introduced into the inlet of the centre lane, and a 1 μL solution of 5% FBS in PBS was introduced at the hole of the outlet of the centre lane forming a dome shape as in Example 1. […] After 1 minute 50 μL of HBSS was added to the outlet and the OrganoPlate was placed in a humidity-controlled environment at 37° C. and 5% CO2 for 1 hour. For cell seeding, 1 μL of a cell suspension containing 10,000 cell/μL Primary Human Coronary Artery Endothelial Cells (HCAEC) and 2,500 cell/μL Primary Human Coronary Artery Smooth Muscle Cells (HCASMC) was seeded in the outlet of the middle lane. The cell suspension was driven into the microfluidic network by means of Laplace pressure due to the surface tension of the cell pellet. Cells were left to attach for between 2-6 hours. […]
smiles,measurement,value
CCCc1nn(C)c2c(=O)[nH]c(-c3cc(S(=O)(=O)N4CCN(C)CC4)ccc3OCC)nc12 [Sildenafil],contraction of the tubule / change of lumen diameter upon exposure to a stimulus,contraction
